According to ChEMBL document CHEMBL5678818, “Discovery of potent SOS1 inhibitors that block RAS activation via disruption of the RAS-SOS1 interaction” (Proc Natl Acad Sci U S A, 2019):

Assays:
[1] = target: Mast/stem cell growth factor receptor Kit (Homo sapiens) (UniProt P10721); assay: Inhibition of KIT (unknown origin) assessed as residual activity at 100 nM by KINOMEscan analysis relative to control
[2] = target: Serine/threonine-protein kinase PAK 6 (Homo sapiens) (UniProt Q9NQU5); assay: Inhibition of PAK6 (unknown origin) assessed as residual activity at 100 nM by KINOMEscan analysis relative to control
Sequence of Serine/threonine-protein kinase PAK 6 (Homo sapiens) (Q9NQU5 whole entry, looked up): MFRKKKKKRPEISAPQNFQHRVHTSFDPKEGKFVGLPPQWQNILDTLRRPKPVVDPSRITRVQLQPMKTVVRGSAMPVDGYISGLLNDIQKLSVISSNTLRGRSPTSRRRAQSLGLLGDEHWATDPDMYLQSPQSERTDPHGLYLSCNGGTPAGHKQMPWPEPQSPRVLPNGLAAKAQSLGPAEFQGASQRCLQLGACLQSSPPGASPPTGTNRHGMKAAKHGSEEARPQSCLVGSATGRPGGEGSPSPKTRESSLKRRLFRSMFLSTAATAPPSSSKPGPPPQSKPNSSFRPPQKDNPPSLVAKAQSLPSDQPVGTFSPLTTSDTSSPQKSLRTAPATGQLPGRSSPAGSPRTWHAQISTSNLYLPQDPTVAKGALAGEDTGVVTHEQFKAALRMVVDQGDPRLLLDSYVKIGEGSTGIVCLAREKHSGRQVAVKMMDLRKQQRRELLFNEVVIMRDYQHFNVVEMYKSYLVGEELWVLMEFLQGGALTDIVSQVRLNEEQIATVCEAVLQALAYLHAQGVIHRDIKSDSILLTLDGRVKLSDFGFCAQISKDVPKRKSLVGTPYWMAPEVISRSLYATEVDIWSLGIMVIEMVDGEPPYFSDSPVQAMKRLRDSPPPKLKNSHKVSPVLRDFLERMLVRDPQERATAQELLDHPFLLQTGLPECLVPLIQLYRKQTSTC

[3] = species on record: Homo sapiens; assay: Inhibition of JNK2 (unknown origin) assessed as residual activity at 100 nM by KINOMEscan analysis relative to control
[4] = target: Cyclin-dependent kinase 4/cyclin D1 (Homo sapiens) (UniProt P11802+P24385); assay: Inhibition of CDK4-cyclin D1 (unknown origin) assessed as residual activity at 100 nM by KINOMEscan analysis relative to control; format: protein-complex assay
[5] = target: T1, Serine/threonine-protein kinase TAO3 (Homo sapiens) (UniProt Q9H2K8); assay: Inhibition of TAOK3 (unknown origin) assessed as residual activity at 100 nM by KINOMEscan analysis relative to control
T1 sequence (whole entry): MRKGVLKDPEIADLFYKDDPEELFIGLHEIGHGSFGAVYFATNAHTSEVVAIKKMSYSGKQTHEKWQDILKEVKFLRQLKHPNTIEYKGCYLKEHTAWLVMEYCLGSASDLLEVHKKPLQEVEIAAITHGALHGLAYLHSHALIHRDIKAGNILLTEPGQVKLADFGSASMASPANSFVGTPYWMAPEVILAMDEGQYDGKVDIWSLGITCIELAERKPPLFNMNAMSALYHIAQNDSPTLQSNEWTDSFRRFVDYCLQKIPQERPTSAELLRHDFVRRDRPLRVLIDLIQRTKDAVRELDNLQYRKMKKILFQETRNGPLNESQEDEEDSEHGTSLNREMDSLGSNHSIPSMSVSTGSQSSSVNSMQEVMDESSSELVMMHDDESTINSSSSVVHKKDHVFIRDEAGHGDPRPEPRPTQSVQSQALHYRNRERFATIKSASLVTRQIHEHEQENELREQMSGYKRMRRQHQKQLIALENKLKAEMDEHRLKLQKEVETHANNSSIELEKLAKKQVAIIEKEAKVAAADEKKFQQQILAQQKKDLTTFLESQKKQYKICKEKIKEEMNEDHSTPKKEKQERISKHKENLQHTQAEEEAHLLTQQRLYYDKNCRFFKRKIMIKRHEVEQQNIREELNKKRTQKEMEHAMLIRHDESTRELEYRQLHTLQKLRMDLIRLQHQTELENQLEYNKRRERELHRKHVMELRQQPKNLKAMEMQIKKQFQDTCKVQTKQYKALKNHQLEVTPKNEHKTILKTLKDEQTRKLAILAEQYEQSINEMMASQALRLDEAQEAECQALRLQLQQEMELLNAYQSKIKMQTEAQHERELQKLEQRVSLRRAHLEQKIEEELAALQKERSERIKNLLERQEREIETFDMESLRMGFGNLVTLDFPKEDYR

[6] = target: T2, Ephrin type-A receptor 8 (Homo sapiens) (UniProt P29322); assay: Inhibition of EPHA8 (unknown origin) assessed as residual activity at 100 nM by KINOMEscan analysis relative to control
T2 sequence (whole entry): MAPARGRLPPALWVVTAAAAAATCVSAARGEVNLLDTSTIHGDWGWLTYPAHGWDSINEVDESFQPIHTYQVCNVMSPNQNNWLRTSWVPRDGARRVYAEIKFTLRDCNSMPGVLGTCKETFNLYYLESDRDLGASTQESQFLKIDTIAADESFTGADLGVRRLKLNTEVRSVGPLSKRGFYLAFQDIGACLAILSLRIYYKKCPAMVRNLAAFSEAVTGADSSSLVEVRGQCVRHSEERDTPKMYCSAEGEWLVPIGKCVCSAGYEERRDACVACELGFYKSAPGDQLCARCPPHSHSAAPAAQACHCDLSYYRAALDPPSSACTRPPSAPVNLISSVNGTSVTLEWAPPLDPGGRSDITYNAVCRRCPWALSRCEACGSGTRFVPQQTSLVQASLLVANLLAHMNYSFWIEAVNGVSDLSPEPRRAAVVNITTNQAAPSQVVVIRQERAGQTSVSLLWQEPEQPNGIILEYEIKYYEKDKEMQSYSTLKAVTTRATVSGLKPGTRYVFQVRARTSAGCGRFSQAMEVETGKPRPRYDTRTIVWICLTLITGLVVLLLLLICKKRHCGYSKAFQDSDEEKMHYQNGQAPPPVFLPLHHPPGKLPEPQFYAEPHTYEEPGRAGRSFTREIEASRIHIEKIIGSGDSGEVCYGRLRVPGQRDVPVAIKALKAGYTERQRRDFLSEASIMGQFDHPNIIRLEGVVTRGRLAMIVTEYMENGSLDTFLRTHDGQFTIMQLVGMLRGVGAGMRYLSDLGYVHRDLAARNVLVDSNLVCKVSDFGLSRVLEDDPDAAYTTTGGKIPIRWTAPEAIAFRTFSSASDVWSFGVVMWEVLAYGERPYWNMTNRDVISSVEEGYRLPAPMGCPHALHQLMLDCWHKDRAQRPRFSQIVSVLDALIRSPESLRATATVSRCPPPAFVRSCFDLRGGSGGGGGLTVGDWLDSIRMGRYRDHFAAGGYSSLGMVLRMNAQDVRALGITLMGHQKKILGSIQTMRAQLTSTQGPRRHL

[7] = target: T3, Megakaryocyte-associated tyrosine-protein kinase (Homo sapiens) (UniProt P42679); assay: Inhibition of CTK (unknown origin) assessed as residual activity at 100 nM by KINOMEscan analysis relative to control
T3 sequence (whole entry): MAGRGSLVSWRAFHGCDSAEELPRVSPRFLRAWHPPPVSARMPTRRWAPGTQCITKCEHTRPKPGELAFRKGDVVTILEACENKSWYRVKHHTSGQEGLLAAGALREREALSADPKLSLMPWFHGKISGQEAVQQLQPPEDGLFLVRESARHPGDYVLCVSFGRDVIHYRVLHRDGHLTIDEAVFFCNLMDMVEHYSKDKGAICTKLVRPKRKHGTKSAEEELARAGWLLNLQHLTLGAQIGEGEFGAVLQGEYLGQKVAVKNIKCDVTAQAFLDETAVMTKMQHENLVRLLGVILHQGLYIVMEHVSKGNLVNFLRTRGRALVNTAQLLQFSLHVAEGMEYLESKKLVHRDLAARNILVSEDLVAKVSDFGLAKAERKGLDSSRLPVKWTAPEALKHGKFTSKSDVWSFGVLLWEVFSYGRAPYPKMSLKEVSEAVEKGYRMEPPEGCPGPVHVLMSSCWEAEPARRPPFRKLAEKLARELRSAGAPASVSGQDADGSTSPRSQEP

Sequence of Mast/stem cell growth factor receptor Kit (Homo sapiens) (P10721 whole entry): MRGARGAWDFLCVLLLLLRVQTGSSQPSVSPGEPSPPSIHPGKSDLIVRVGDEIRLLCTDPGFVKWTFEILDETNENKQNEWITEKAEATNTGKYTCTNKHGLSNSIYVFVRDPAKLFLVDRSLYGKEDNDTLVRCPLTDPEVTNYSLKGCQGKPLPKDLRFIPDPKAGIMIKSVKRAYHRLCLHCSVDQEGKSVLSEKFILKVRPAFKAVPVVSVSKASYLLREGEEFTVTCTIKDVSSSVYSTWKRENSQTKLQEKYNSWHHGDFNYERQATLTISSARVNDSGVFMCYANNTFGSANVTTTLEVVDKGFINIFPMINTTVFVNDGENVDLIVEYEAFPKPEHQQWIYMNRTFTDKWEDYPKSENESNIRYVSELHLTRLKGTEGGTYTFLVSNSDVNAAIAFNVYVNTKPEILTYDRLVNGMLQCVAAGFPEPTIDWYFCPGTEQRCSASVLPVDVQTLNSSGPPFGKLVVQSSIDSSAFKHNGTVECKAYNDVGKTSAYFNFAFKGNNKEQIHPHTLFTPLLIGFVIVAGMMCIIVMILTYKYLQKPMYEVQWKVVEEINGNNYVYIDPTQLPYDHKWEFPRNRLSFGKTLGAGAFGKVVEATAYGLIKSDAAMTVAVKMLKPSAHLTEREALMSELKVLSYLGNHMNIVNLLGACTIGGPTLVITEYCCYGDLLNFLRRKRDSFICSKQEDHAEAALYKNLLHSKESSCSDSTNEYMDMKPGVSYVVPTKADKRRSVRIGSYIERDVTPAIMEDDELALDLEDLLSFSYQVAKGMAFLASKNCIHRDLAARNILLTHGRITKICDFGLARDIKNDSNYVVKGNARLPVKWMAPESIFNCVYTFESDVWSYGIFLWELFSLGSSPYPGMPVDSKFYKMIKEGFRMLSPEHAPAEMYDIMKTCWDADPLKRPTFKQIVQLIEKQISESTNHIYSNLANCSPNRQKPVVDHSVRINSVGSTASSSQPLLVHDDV

For `COc1cc2ncnc(N[C@H](C)c3cccc4ccccc34)c2cc1OC`, the Activity [1] was 100%, the Activity [2] was 92% and the Activity [3] was 68%. It also gave an Activity [4] of 92%, an Activity [5] of 82% and an Activity [6] of 75%. It also gave an Activity [7] of 64%.
